For data set [1], the target named is T1, CDK2/CCNA2 (cdk2/cyclin A) (Homo sapiens, UniProt P24941).
T1 construct: host or cells: Sf21 insect cells
Description: CDK2/cyclin A kinase inhibition ([32P]Histone H1). The class given is biochemical. As to the method:
Human recombinant Sf21 cells were employed to assess the activity on protein serine threonine kinase CDK2/CCNA2 (cdk2/cyclin A). Histone H1 at 100 µg/ml was used as a substrate and the activity was measured by quantification of [^32P]Histone H1 after preincubation and incubation times of 15 and 30 min, respectively, at 37°C in 20 mM MOPS, pH 7.2, 5 mM EGTA, 20 mM MgCl2, 1 mM DTT, 25 mM β-Glycerophosphate, 1 mM Na3V04 incubation buffer (Gray, N. et al. Curr Med Chem, 1999, 6(9):859-875). Table 7. Inhibition of CDK2 at 10 µM

The nature of data set [2]: Maximum Tolerated Dose after acute administration. Conditions: mouse, in vivo, ip, mice. Here is the method: The Maximum Tolerated Dose (MTD) in mice was determined for selected compounds. The protocol of the studies was in accordance with the standard guidelines for drug development: • (htp://dtp.nci.nih.gov/branches/btb/acute tox.html). Table 10. Maximum Tolerated Doses in mice after acute i.p. administration

A further data set addresses T2, Src (Homo sapiens, UniProt P12931).
T2 construct: host or cells: Sf9 insect cells
Description: Src protein tyrosine kinase inhibition (ELISA of Poly[Glu:Tyr-P]). The class given is biochemical. As to the method:
Src protein tyrosine kinase activity was assessed in human recombinant insect Sf9 cells using as a substrate Poly(Glu:Tyr) at 10 µg/mL with preincubation and incubation times of 15 and 5 min, respectively, at 22°C in 50 mM HEPES, pH 7.4, 1 mM DTT, 20 mM MgCl2 and 0.2 mM Na3VO4. An ELISA quantitation method of Poly[Glu:Tyr-P] was employed (Farley, K et al. Anal Biochem, 1992, 203, 151-157). Table 4. Inhibition of Src at 10 µM

In another data set the test system is mice. Description: Formalin test (antinociceptive activity). The class given is in vivo. Conditions: for Early Response / Late Response: formalin test, dose 10-30 mg/Kg i.p.; for Early Response: early response 0-5 min; for Late Response: late response 20-30 min. As to the method:
The chemical irritant formalin test is used as a chronic pain model in animals. The s.c. administration of formalin to the paw of a mouse produces a biphasic nociceptive behavioral response, an early response (0-5 min after injection) and a late response (20-30 min after injection) (Hunskaar, S., Fasmer, O.B., Hole, K. Formalin test in mice, a useful technique for evaluating mild analgesics. J Neurosci Methods, 1985 ;14(1):69-76).
Aspirine and paracetamol are included as external active references in early and late response. Table 12. Early and late response inhibition in the formalin test.

The subject of another data set is tumor melanoma B16-FO. Description: Tumor cell proliferation assay (alamarBlue). The data set is classed as cell-based, murine. The conditions noted are these: Mus musculus. As to the method:
Changes in cell proliferation were detected based on the ability of viable cells to cause alamarBlue® to change its oxidized (non-fluorescent, blue) to a reduced (fluorescent, red) form. The alamarBlue® reaction allows the quantification of cell proliferation and examination of the metabolic activity of viable cells. Test substances were examined for activity on the proliferation of human or murine tumor cell lines at assay concentrations from 0.01 to 100 µM.
For orientation: The colour change of resazurin is a common sign of viable cells or microbes.

For the next data set, the target named is T3, COX-2 (Homo sapiens, UniProt P35354).
T3 construct: host or cells: Sf21 insect cells
T3 sequence (P35354 18-604): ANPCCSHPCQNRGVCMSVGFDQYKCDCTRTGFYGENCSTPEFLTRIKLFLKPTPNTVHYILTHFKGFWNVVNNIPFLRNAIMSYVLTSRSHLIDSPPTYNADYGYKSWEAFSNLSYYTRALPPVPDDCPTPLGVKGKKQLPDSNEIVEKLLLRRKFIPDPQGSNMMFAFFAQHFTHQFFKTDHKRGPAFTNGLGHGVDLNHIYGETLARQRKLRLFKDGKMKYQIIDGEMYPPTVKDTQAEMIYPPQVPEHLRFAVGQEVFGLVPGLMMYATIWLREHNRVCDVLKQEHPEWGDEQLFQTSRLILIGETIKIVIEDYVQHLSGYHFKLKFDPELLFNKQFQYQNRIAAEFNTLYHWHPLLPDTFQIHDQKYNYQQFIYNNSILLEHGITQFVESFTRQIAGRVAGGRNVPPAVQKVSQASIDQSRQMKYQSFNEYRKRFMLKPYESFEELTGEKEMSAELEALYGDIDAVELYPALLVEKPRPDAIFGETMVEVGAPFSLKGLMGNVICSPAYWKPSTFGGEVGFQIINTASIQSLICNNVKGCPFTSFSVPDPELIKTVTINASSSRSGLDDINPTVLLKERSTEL
Description: COX-2 inhibition (PGE2 enzyme immunoassay). The data set is classed as biochemical. The conditions noted are these: read-out: % COX-2 inhibition. As to the method:
(§1) The COX-1 inhibitory activity of representative compounds of the invention was determined according to previously reported methods. COX-1 activity was assessed in human platelets using 100 µM arachidonic acid as a substrate and preincubation and incubation times of 15 min at 37 °C in HBSS, 15 mM HEPES pH 7.4 . The quantification method used was enzyme immunoassay determination of PGE2 (Chan, C.C. et al. J Pharmacol Exp Ther, 1999, 290, 551-560; Swinney, D.C. et al. J Biol Chem, 1997, 272, 12393-12398; Warner, T.D. et al. Proc Natl Acad Sci U S A, 1999, 96, 7563-7568; Riendeau, D. et al. Can J Physiol Pharmacol, 1997, 75, 1088-1095). COX-2 inhibitory activity was determined in human recombinant insect Sf21 cells according to references (Warner, T.D. et al., Proc Natl Acad Sci, USA. 1999;96(13):7563-7568; Riendeau, D. et al., Can J Physiol Pharmacol, 1997 ;75(9):1088-1095). Briefly, the COX-2 inhibitory activity was assessed on human recombinant insect Sf21 cells using 0.3 µM arachidonic acid as a substrate and preincubation and incubation times of 15 and 5 min, respectively, at 37 °C in 100 mM Tris-HCl, pH 7.7. The quantification method used was enzyme immunoassay determination of PGE2. Table 11. Inhibition of COX-1 and COX-2 at 10 µM

The target in a further data set is T4, COX-1 (Homo sapiens, UniProt P23219).
T4 construct: endogenous in cells; host or cells: human platelets
T4 sequence (P23219 24-599): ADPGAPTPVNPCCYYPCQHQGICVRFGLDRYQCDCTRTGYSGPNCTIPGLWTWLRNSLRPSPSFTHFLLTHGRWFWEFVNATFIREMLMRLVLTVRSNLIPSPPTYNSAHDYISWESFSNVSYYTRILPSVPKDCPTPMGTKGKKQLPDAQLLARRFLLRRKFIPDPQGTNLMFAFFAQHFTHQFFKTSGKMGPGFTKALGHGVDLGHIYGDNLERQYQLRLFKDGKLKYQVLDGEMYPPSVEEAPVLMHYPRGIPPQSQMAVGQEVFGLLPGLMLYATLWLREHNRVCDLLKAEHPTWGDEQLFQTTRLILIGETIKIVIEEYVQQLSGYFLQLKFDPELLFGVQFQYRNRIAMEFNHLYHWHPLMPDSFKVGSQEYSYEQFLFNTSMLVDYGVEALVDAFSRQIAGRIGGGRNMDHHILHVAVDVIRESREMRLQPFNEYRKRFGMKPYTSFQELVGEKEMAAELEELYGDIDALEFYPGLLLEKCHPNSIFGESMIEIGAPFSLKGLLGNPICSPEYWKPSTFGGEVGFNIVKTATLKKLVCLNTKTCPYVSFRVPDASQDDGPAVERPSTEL
Description: COX-1 inhibition in human platelets (PGE2 enzyme immunoassay). Conditions: read-out: % COX-1 Inhibition. The class given is biochemical. Here is the method: as §1

Where [3] appears, read: tumor melanoma B16-FO, read-out: IC50.

Where a name gives a salt, the structure may show the parent alone. Read-outs that look alike come from different tables or passages of the source.

T2 sequence (P12931 whole entry): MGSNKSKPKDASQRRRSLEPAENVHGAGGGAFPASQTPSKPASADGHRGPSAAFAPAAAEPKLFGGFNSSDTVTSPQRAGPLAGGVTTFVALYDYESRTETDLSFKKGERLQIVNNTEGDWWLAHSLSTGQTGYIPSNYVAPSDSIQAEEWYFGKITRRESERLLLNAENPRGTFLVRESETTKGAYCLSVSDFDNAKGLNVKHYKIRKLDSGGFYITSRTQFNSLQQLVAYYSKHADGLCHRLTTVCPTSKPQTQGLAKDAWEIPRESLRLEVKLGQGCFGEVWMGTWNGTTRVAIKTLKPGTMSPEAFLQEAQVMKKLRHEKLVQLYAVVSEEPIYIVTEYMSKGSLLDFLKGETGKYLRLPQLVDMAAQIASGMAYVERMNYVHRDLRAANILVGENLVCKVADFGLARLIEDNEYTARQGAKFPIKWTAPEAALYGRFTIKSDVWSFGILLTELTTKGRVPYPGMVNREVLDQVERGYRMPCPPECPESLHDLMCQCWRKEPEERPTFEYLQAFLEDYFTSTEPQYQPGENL

As a reminder, the inhibition is the percentage by which the read-out fell short of the control. In general, MTD refers to the largest dose that counted as tolerated. A lower MTD goes with a narrow tolerated range. Usually IC50 stands for the concentration at which inhibition is half-maximal. As for `C=CCc1ccc(O)c(-c2cc(CC=C)ccc2OC(CCNC)c2ccccc2)c1.Cl` (centres unmarked) [Example 1, 5,5'-Diallyl-2'-[3-(methylamino)-1-phenylpropoxy]biphenyl-2-ol hydrochloride], the inhibition at 10 µM in data set [1] (CDK2, at 10 µM, read-out: % Inhibition) was determined as 92%; at Src (Src, at 10 µM, read-out: % Inhibition) it was 99%; at COX-2 (at 10 µM), 0%; on COX-1 (at 10 µM, human platelets), 81%. The compound also registered an MTD in data set [2] of 25 mg/kg. In addition, in the data set on mice (30 mg/kg i.p, early and late phases, potency similar to morphine 10 mg/kg i.p.), the “antinociceptive activity in the formalin test” value was “relevant antinociceptive activity”. Further, the “Early Response” value with mice is on record as “slightly active”. The “Late Response” value with mice is on record as “active”. Also, the IC50 in the data set with tumor melanoma B16-FO (setting [3]) worked out at 1900 nM.
In the case of `C=CCc1ccc(O)c(-c2ccc(OC(CCNC)c3ccccc3)c(CC=C)c2)c1` (centres unmarked) [Example 5, 3',5-Diallvl-4'-13-(methylamino)-1-phenylpropoxy]biphenyl-2-ol hydrochloride], the inhibition at 10 µM in data set [1] is 98%; at Src it was more than 100%; on COX-2, 0%; at COX-1, 75%. The compound further displayed an MTD in data set [2] of 25 mg/kg. Moreover, the “Early Response” value in the data set with mice was “slightly active”. Also, the “Late Response” value with mice is “Active”. Also, the IC50 in the data set on tumor melanoma B16-FO stood at 1600 nM.
Take `C=CCc1ccc(O)c(-c2ccc(O)c(CC=C)c2)c1` [Honokiol, reference compound]: in the data set with tumor melanoma B16-FO (setting [3]), the half-maximal inhibitory concentration (IC50) is 30000 nM. For the same compound, the inhibition at 10 µM came out at 79% on COX-2 (at 10 µM) and 0% on COX-1 (at 10 µM, human platelets).

The values are drawn from patent publication EP2423181A1, “Multitarget substituted biphenyl diol derivatives” (PROUS INSTITUTE FOR BIOMEDICAL RESEARCH S.A., priority 2010, dated 2012).
